How the values were obtained:
Format in all cases: cell-based
[1] = tested on: genes associated with stemness/EMT; assay: qPCR of selected genes associated with stemness/EMT in A375-P cells; details: FIG. 1H, 1 μM PLX4720, 0.5 μM AZD6244 or combination of both, 24 h
Procedure: (A) A375-P cells were treated with PLX4720 (BRAFi) or DMSO for 6 h, RNA was isolated and RNA-Seq was performed. […] (B) Bar graphs showing the five top pathways with significant enrichment of the analyzed DEGs. Longer bars indicate stronger significance. […] Data shown represent mean of independent biological triplicates ±SEM. (E) Western blot analysis of the same experiment as shown in (D). As key player in the stemness signature, SOX2 levels were assessed. P-ERK1/2 levels served as positive treatment controls. Total ERK1/2 levels served as loading control. (F) A375-P cells were treated with 1 μM PLX4720, 0.5 μM AZD6244 (MEK1/2 inhibitor) or 0.01% DMSO for the indicated times and SOX2 levels were assessed by Western blot analysis. […] (G) A375-P cells were treated with 1 μM PLX4720 (BRAFi), 0.5 μM AZD6244 (MEKi), a combination of both drugs or 0.01% DMSO for the indicated times and SOX2 levels were assessed by Western blot analysis. […] For all Western blots, individual time points were assessed in at least two independent experiments. Representative data is shown.

SOX2 = SOX2 levels by Western blot after MAPKi treatment; details: A375-P cells, indicated times
Procedure: (A) A375-P cells were treated with PLX4720 (BRAFi) or DMSO for 6 h, RNA was isolated and RNA-Seq was performed. […] Differentially expressed genes (DEGs) selected for pathway analysis are represented by red and blue dots depending on the direction of the transcriptional change (red genes are induced upon PLX4720, blue genes are repressed upon PLX4720). (B) Bar graphs showing the five top pathways with significant enrichment of the analyzed DEGs. Longer bars indicate stronger significance. (C) Top deregulated genes upon treatment with PLX4720 (left column). Top genes induced and repressed by PLX4720 are shown in separate lists. (D) Indicated cell lines were treated with 1 μM PLX4720 or 0.01% DMSO (0 h) for the indicated times and the expressional changes of selected genes associated with stemness/EMT were confirmed by qPCR. […] Data shown represent mean of independent biological triplicates ±SEM. (E) Western blot analysis of the same experiment as shown in (D). As key player in the stemness signature, SOX2 levels were assessed. P-ERK1/2 levels served as positive treatment controls. Total ERK1/2 levels served as loading control. (F) A375-P cells were treated with 1 μM PLX4720, 0.5 μM AZD6244 (MEK1/2 inhibitor) or 0.01% DMSO for the indicated times and SOX2 levels were assessed by Western blot analysis. […] (G) A375-P cells were treated with 1 μM PLX4720 (BRAFi), 0.5 μM AZD6244 (MEKi), a combination of both drugs or 0.01% DMSO for the indicated times and SOX2 levels were assessed by Western blot analysis. […] (H) A375-P cells were treated with 1 μM PLX4720 (BRAFi), 0.5 μM AZD6244 (MEKi), a combination of both drugs or 0.01% DMSO for the 24 h and the expressional changes of selected genes associated with stemness/EMT were confirmed by qPCR. […] For all Western blots, individual time points were assessed in at least two independent experiments. Representative data is shown.

S6K and BAD = assay: Survival signaling by Western blot in A375-P/pTRIPZ cells; details: FIG. 2G, PLX4720 for 48 h
Procedure: (§1) (A) A375-P cells were transfected with 100 nM siRNA targeting SOX2 or a negative control siRNA. Cells were then treated with PLX4720 (BRAFi) or DMSO for 48 h. 2 h before harvesting, cells were pulsed with 3 uM EdU to label cycling cells. EdU-positive cells were detected using flow cytometry. […] Representative data is shown. (B) Quantification of experiment (A). For each condition, percentage of cycling cells upon siRNA knockdown of SOX2 was normalized to the negative control siRNA. Data shown represent mean of independent biological triplicates ±SEM. (C) A375-P cells stably transduced with pTRIPZ-SOX2 vector were treated with the indicated concentrations of doxycycline for three days or with 1 μM PLX4720 (PLX) for 24 h. SOX2 overexpression was confirmed by Western blot analysis. Lamin A served as loading control. Individual concentrations were assessed in at least two independent experiments. Representative results are shown. (D) A375-P/pTRIPZ-control or -SOX2 cells were pre-treated with 0 ng/ml (negative control) or with 50 ng/ml doxycycline for 24 h, and subsequently with DMSO or PLX4720 for an additional 48 h. 2 h before harvesting, cells were pulsed with 3 uM EdU to label cycling cells. EdU-positive cells were detected using flow cytometry. […] Cell viability was assessed by PrestoBlue assay and IC50 values were calculated. […] Survival signaling was assessed by Western blot. […]

[2] = tested on: A375-P/pTRIPZ-control or -SOX2 cells; assay: Cell viability by PrestoBlue assay; details: FIG. 2E-F; pTRIPZ-SOX2 cells with 50 ng/ml doxycycline versus 0 ng/ml; serial dilutions of PLX4720 for four days
Procedure: as §1

[3] = FIG. 1F, 1 μM PLX4720 or 0.5 μM AZD6244
[4] = FIG. 1G, 1 μM PLX4720, 0.5 μM AZD6244 or combination of both

Row | SMILES | transcript levels of selected stemness/EMT genes (qPCR) [1] | SOX2 levels (Western blot) (SOX2; [3]) | SOX2 levels (Western blot) (SOX2; [4]) | survival signaling via S6K and BAD (Western blot) (S6K and BAD) | drug sensitivity (survival curve, cell viability) [2]
1 | Cn1cnc2c(F)c(Nc3ccc(Br)cc3Cl)c(C(=O)NOCCO)cc21 [AZD6244] | comparable effects on transcript levels | induce similar SOX2 levels | comparable effects on SOX2 levels |  | 
2 | CCCS(=O)(=O)Nc1ccc(F)c(C(=O)c2c[nH]c3ncc(Cl)cc23)c1F [PLX4720] | comparable effects on transcript levels | induce similar SOX2 levels | comparable effects on SOX2 levels | repressed | decreased drug sensitivity when SOX2 is overexpressed

Source: patent US20200087732A1, “IDENTIFICATION OF DRUGS TARGETING NON-GENETIC DRUG TOLERANCE PROGRAMS IN CANCER” (ETH ZURICH, priority 2016, published 2020)
